Results from patent publication US6992111B2, “Fungicide” (Valent BioSciences Corporation, priority 2003, dated 2006).

Columns and labels:
Mycosphaerella fijiensis = experiment: Contact evaluation (microtiter plate fungal growth); assay type: cell-based
Protocol: (§1) Compound solution: Contact evaluations were conducted to determine the anti-fungal activity of each compound against Botrytis cinerea, Sclerotinia sclerotiorum, Pythium aphanidermatum, Rhizoctonia solani, Cercospora arachidicola, Mycosphaerella fijiensis, and Monilinia laxa. Five milligrams of each compound were dissolved in 0.5 milliliter of DMSO for a compound stock solution of 1.0% w/v. Compound stock solutions were serial diluted with DMSO to 20, 10, and 2 ppm final well concentration.
(§2) Fungi preparation: Botrytis cinerea spores were taken from 6-week-old cultures grown at 22 C on full strength potato dextrous agar (PDA) plates. Sclerotinia sclerotiorum, Pythium aphanidermatum, Rhizoctonia solani, and Monilinia laxa mycelia were taken from 4- to 10-day-old shake flask cultures grown at room temperature on full strength potato dextrous broth (PDB). Cercospora arachidicola mycelia were taken from 10- to 14-day-old shake flask cultures grown at room temperature on a full strength PDB amended with peanut oil. Mycosphaerella fijiensis mycelia were taken from 10- to 14-day-old shake flask cultures grown at room temperature on V8 juice broth. Sclerotinia sclerotiorum, Pythium aphanidermatum, Rhizoctonia solani, Cercospora arachidicola, and Mycosphaerella fijiensis mycelia (0.4 g mycelia) were blended for 45 seconds in 20 mL sterile de-ionized water. Monilinia laxa mycelia (1 g mycelia) was blended for 45 seconds in 30 mL of sterile de-ionized water. Botrytis cinerea spores were diluted with quarter strength PDB to 1×10^5 spores/mL final well concentration. All mycelia were diluted in water (1:5 mycelia:water) before distributing into the wells.
(§3) Microtiter plate preparation: Compound solution (10:L), quarter strength PDB (900:L) and fungi preparation (100:L) were sequentially distributed into 48-well microtiter plates (n=3 replications/compound/rate). A blank consisted of quarter strength PDB and fungi preparation. Commercial fungicide controls (100 ppm diluted with water) consisted of Scala for Botrytis cinerea, Dithane F-45 for Mycosphaerella fijiensis, and Benlate for Sclerotinia sclerotiorum, Pythium aphanidermatum, Rhizoctonia solani, Cercospora arachidicola, and Monilinia laxa. Plates were shaken in a circular rotator at room temperature for 20 minutes, then incubated at 25C for 24 to 72 hours, depending on the pathogen.
(§4) Fungal control ratings: Fungal growth in wells containing the compounds were compared to the positive control and fungal inhibition was rated as full, partial, or none. Final readings were the average of the three wells (Table 1).

Pythium aphanidermatum = experiment: as above; assay type: cell-based
Protocol: as §1, §2, §3, §4

Monilinia laxa = experiment: as above; assay type: cell-based
Protocol: as §1, §2, §3, §4

Cercospora arachidicola = experiment: as above; assay type: cell-based
Protocol: as §1, §2, §3, §4

Botrytis cinerea [1] = experiment: as above; assay type: cell-based
Protocol: as §1, §2, §3, §4

Rhizoctonia solani = experiment: as above; assay type: cell-based; conditions: Rhizoctinia solani
Protocol: as §1, §2, §3, §4

Sclerotinia sclerotiorum = experiment: as above; assay type: cell-based; conditions: Sclerotinia sclerotionum
Protocol: Contact Evaluation. Compound solution: Contact evaluations were conducted to determine the anti-fungal activity of each compound against Botrytis cinerea, Sclerotinia sclerotiorum, Pythium aphanidermatum, Rhizoctonia solani, Cercospora arachidicola, Mycosphaerella fijiensis, and Monilinia laxa. Five milligrams of each compound were dissolved in 0.5 milliliter of DMSO for a compound stock solution of 1.0% w/v. Compound stock solutions were serial diluted with DMSO to 20, 10, and 2 ppm final well concentration. Fungi preparation: Botrytis cinerea spores were taken from 6-week-old cultures grown at 22 C on full strength potato dextrous agar (PDA) plates. Sclerotinia sclerotiorum, Pythium aphanidermatum, Rhizoctonia solani, and Monilinia laxa mycelia were taken from 4- to 10-day-old shake flask cultures grown at room temperature on full strength potato dextrous broth (PDB). Cercospora arachidicola mycelia were taken from 10- to 14-day-old shake flask cultures grown at room temperature on a full strength PDB amended with peanut oil. Mycosphaerella fijiensis mycelia were taken from 10- to 14-day-old shake flask cultures grown at room temperature on V8 juice broth. Sclerotinia sclerotiorum, Pythium aphanidermatum, Rhizoctonia solani, Cercospora arachidicola, and Mycosphaerella fijiensis mycelia (0.4 g mycelia) were blended for 45 seconds in 20 mL sterile de-ionized water. Monilinia laxa mycelia (1 g mycelia) was blended for 45 seconds in 30 mL of sterile de-ionized water. Botrytis cinerea spores were diluted with quarter strength PDB to 1×10^5 spores/mL final well concentration. All mycelia were diluted in water (1:5 mycelia:water) before distributing into the wells. Microtiter plate preparation: Compound solution (10:L), quarter strength PDB (900:L) and fungi preparation (100:L) were sequentially distributed into 48-well microtiter plates (n=3 replications/compound/rate). A blank consisted of quarter strength PDB and fungi preparation. Commercial fungicide controls (100 ppm diluted with water) consisted of Scala for Botrytis cinerea, Dithane F-45 for Mycosphaerella fijiensis, and Benlate for Sclerotinia sclerotiorum, Pythium aphanidermatum, Rhizoctonia solani, Cercospora arachidicola, and Monilinia laxa. Plates were shaken in a circular rotator at room temperature for 20 minutes, then incubated at 25C for 24 to 72 hours, depending on the pathogen. Fungal control ratings: Fungal growth in wells containing the compounds were compared to the positive control and fungal inhibition was rated as full, partial, or none. Final readings were the average of the three wells (Table 1).

Botrytis cinerea [2] = experiment: Detached bean leaf bioassay, fungal control; assay type: in vivo; conditions: 200 ppm on detached bean leaf; 100 minus percent necrotic area, three days after inoculation
Protocol: Detached Bean Leaf Bioassay
Compound solution: Compound solutions were prepared by diluting compound stock solutions (1.0% w/v compound in DMSO) to 200 ppm with 0.01% w/v Triton X-100.
Spore solution preparation: Botrytis cinerea spores were taken from 6-week-old cultures grown at 22 C on full strength potato dextrous agar (PDA) plates and harvested in 1:16 frozen orange juice concentrate:water. Botrytis cinerea spore solutions were prepared by diluting spore cultures to 5×10^4 spores/mL with 1:16 frozen orange juice concentrate:water.
Plant material: Middle trifoliate leaves of greenhouse grown Phaseolus vulgaris (Bush bean cv. Blue Lake 274) were excised and placed on a plastic grid above a tray containing moist towels.
Treatment method: One half of the adaxial surface of the leaf was treated with the compound solution (100:L) using a 3 cm Bacti Cell Spreader. A blank consisted of 0.01% w/v Triton X-100. A commercial fungicide control (200 ppm diluted with water) consisted of Scala. After the solutions dried, the trays containing the leaves were covered and held one day in a growth chamber (22 C). The adaxial surfaces of the leaves were then inoculated with 5–60:L droplets of Botrytis cinerea spore solution.
Fungal control rating: Three days after inoculation with Botrytis, the percent necrotic area under the inoculation droplet was determined. Since the areas under the blank (0.01% w/v Triton X-100) were 100% infected, fungal control was expressed as 100 minus the percent necrotic area, and thus 0% infected is 100% fungal control (n=3 leaves/compound, 5 inoculation droplets/leaf, Table 2).

[3] = tested on: Phaseolus vulgaris (Bush bean cv. Blue Lake 274) leaves; experiment: Detached bean leaf bioassay, phytotoxicity rating; assay type: in vivo
Protocol: Detached Bean Leaf Bioassay Compound solution: Compound solutions were prepared by diluting compound stock solutions (1.0% w/v compound in DMSO) to 200 ppm with 0.01% w/v Triton X-100. Plant material: Middle trifoliate leaves of greenhouse grown Phaseolus vulgaris (Bush bean cv. Blue Lake 274) were excised and placed on a plastic grid above a tray containing moist towels. Treatment method: One half of the adaxial surface of the leaf was treated with the compound solution (100:L) using a 3 cm Bacti Cell Spreader. A blank consisted of 0.01% w/v Triton X-100. A commercial fungicide control (200 ppm diluted with water) consisted of Scala. After the solutions dried, the trays containing the leaves were covered and held one day in a growth chamber (22 C). The adaxial surfaces of the leaves were then inoculated with 5–60:L droplets of Botrytis cinerea spore solution. Phytotoxicity ratings: Phytotoxicity was rated as 0=no phytotoxicity, 1=slight phytotoxicity, 2=moderate phytotoxicity, or 3=excessive phytotoxicity (Table 2).

Compound | Control of fungi (full, partial, none) (Mycosphaerella fijiensis; fungicide rate 2 ppm) | Control of fungi (full, partial, none) (Mycosphaerella fijiensis; fungicide rate 10 ppm) | Control of fungi (full, partial, none) (Mycosphaerella fijiensis; fungicide rate 20 ppm) | Control of fungi (full, partial, none) (Pythium aphanidermatum; fungicide rate 2 ppm) | Control of fungi (full, partial, none) (Pythium aphanidermatum; fungicide rate 10 ppm) | Control of fungi (full, partial, none) (Pythium aphanidermatum; fungicide rate 20 ppm) | Control of fungi (full, partial, none) (Monilinia laxa; fungicide rate 2 ppm) | Control of fungi (full, partial, none) (Monilinia laxa; fungicide rate 10 ppm) | Control of fungi (full, partial, none) (Monilinia laxa; fungicide rate 20 ppm) | Control of fungi (full, partial, none) (Cercospora arachidicola; fungicide rate 2 ppm) | Control of fungi (full, partial, none) (Cercospora arachidicola; fungicide rate 10 ppm) | Control of fungi (full, partial, none) (Cercospora arachidicola; fungicide rate 20 ppm) | Control of fungi (full, partial, none) (Botrytis cinerea [1]; fungicide rate 2 ppm) | Control of fungi (full, partial, none) (Botrytis cinerea [1]; fungicide rate 10 ppm) | Control of fungi (full, partial, none) (Botrytis cinerea [1]; fungicide rate 20 ppm) | Control of fungi (full, partial, none) (Rhizoctonia solani; fungicide rate 2 ppm) | Control of fungi (full, partial, none) (Rhizoctonia solani; fungicide rate 10 ppm) | Control of fungi (full, partial, none) (Rhizoctonia solani; fungicide rate 20 ppm) | Control of fungi (full, partial, none) (Sclerotinia sclerotiorum; fungicide rate 2 ppm) | Control of fungi (full, partial, none) (Sclerotinia sclerotiorum; fungicide rate 10 ppm) | other results
O=[N+]([O-])c1ccc(O)c(-c2ccc(C(F)(F)F)cc2)c1 [X = CF3] | Full | Full | Full | Full | Full | Full | Full | Full | Full | Full | Full | Full | Full | Full | Full | Partial | Full | Full | Full | Full | Control of fungi (full, partial, none) (Sclerotinia sclerotiorum; fungicide rate 20 ppm): Full; Botrytis cinerea control (200 ppm) (Botrytis cinerea [2]): 100%; Phytotoxity (200 ppm) [3]: Moderate
O=[N+]([O-])c1ccc(O)c(-c2ccc(F)cc2)c1 [X = F] | Full | Full | Full | Partial | Full | Full | Partial | Full | Full | Full | Full | Full | Partial | Full | Full | None | Full | Full | Full | Full | Control of fungi (full, partial, none) (Sclerotinia sclerotiorum; fungicide rate 20 ppm): Full; Botrytis cinerea control (200 ppm) (Botrytis cinerea [2]): 31%; Phytotoxity (200 ppm) [3]: None
O=[N+]([O-])c1ccc(O)c(-c2ccc(Cl)cc2)c1 [X = Cl] | Full | Full | Full | Full | Full | Full | Full | Full | Full | Full | Full | Full | Full | Full | Full | Full | Full | Full | Full | Full | Control of fungi (full, partial, none) (Sclerotinia sclerotiorum; fungicide rate 20 ppm): Full; Botrytis cinerea control (200 ppm) (Botrytis cinerea [2]): 97%; Phytotoxity (200 ppm) [3]: Moderate
